The source made the active and inactive calls.
Assays:
[1] = test system: Streptococcus sp. 'group A'; experiment: Streptococcus pyogenes SK(-)GAS viability under kanamycin – luminescence, BacTiterGlo, confirmation, counter-screen for streptokinase expression inhibitor project, dose response (AID 1900); assay type: functional, organism-based
[2] = target: T1, Streptokinase A (Streptococcus pyogenes serotype M1, UniProt P10520); experiment: viability-normalized secreted streptokinase activity reduction – plasminogen activation absorbance, OD405, dose response (AID 1914); assay type: functional, Streptococcus pyogenes M1 GAS;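 note: secreted streptokinase activity via plasminogen activation per viability signal from cell pellet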
T1 sequence (P10520 whole entry): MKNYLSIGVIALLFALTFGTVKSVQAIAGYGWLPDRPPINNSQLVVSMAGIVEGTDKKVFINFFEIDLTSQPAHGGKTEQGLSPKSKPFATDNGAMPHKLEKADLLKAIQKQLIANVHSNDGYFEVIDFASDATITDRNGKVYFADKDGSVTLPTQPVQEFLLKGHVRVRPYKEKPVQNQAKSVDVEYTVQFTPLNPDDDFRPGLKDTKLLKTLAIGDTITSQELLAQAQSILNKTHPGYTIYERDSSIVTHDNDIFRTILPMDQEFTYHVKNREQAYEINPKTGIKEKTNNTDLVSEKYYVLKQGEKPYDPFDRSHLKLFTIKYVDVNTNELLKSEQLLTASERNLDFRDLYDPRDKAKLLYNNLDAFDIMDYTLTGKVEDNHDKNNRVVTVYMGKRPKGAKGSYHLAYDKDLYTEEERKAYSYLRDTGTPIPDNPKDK

[3] = test system: Streptococcus; experiment: GAS UMAA2166 growth inhibition – luminescence, BacTiterGlo, counter-screen for streptokinase expression inhibitor project, dose response (AID 1915); assay type: functional, organism-based;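 note: potency for reduction of bacterial viability or growth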
[4] = target: Cytochrome P450 2C9 (Homo sapiens, UniProt P11712)
Chain of Cytochrome P450 2C9 (P11712 whole entry): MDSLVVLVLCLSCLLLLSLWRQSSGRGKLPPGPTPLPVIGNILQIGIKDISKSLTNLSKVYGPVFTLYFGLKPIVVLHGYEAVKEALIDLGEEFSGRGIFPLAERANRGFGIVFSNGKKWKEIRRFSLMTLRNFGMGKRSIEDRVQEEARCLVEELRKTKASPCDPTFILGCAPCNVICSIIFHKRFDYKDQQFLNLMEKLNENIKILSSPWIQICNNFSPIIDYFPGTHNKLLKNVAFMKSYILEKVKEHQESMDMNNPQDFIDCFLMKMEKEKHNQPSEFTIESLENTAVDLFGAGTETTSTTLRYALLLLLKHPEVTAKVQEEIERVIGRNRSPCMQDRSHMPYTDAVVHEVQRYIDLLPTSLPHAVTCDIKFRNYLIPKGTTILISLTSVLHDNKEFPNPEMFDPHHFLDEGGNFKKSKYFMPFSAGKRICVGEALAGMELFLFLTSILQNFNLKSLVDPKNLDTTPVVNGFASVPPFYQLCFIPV

[5] = target: T2, Cytochrome P450 1A2 (Homo sapiens, UniProt P05177);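 note: PubChem cytochrome P450 panel assay, CYP1A2 panel member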
T2 sequence (P05177 whole entry): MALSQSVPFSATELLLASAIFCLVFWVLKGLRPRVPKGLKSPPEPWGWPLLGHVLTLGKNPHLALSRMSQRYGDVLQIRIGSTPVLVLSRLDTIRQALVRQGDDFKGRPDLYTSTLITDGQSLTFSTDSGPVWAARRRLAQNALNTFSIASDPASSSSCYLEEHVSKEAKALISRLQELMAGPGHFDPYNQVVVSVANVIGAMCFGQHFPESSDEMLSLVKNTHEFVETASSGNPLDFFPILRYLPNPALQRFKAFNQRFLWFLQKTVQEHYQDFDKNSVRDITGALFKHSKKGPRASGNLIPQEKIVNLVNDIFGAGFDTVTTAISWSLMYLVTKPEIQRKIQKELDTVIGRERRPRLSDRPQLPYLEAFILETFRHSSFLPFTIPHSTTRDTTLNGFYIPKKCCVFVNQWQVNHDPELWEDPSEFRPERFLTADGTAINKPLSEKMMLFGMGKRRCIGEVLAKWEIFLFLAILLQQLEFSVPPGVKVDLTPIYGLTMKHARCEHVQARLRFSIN

[6] = NIH-3T3 fibroblast cytotoxicity, dose response, cytotoxicity control, cell-based, fluorescence, Alamar Blue, secondary assay (AID 2327); assay type: functional;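 note: NIH-3T3 mouse fibroblasts cultured with fluconazole at 8 µg/mL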
[7] = fluconazole-exposed Candida albicans growth modulators – fluorescence, retest, confirmation (AID 2467); assay type: functional, cell-based
[8] = reduction of Shn3 3'UTR-driven luciferase in osteoblasts – cell-based, Clone20 osteoblasts, firefly luciferase, cherry-picked, dose response (AID 624132); assay type: functional;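 note: firefly luciferase luminescence from reporter carrying the Shn3 3'UTR in osteoblasts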
[9] = loss of viability in HepG2 cells – cell-based, CellTiter-Glo, cherry-picked, cytotoxicity control for Shn3 inhibitor project, dose response (AID 624134); assay type: functional
[10] = non-specific 3'UTR reporter inhibition in Clone20-Shn3RL – cell-based, Renilla luciferase, cherry-picked, counter-screen for Shn3 inhibitor project, dose response (AID 624133); assay type: functional
[11] = target: Cytochrome P450 3A4 (Homo sapiens, UniProt P08684);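 note: CYP3A4 tested as one member of a cytochrome P450 panel screen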
Chain of Cytochrome P450 3A4 (P08684 whole entry): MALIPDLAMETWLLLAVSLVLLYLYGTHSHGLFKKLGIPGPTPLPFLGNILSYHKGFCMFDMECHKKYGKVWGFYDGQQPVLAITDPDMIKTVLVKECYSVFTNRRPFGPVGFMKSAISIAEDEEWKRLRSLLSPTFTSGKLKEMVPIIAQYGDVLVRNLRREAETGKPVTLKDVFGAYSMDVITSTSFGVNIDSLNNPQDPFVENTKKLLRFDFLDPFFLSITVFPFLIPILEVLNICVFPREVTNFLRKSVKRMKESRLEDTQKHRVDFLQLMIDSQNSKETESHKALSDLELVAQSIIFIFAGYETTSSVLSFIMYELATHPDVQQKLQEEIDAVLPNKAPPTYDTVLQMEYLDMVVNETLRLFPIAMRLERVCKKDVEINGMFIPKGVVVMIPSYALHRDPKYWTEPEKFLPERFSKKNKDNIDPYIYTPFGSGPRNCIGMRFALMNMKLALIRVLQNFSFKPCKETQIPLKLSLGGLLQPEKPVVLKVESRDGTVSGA

[12] = target: T3, Corticotropin-releasing factor receptor 2/Corticotropin-releasing factor-binding protein (Homo sapiens, UniProt P24387+Q13324); experiment: Dose Response confirmation of uHTS hits for small molecule antagonists of the CRF-binding protein and CRF-R2 receptor complex.; assay type: functional; conditions: read-out: IC50_Mean
T3 sequence (Q13324 whole entry): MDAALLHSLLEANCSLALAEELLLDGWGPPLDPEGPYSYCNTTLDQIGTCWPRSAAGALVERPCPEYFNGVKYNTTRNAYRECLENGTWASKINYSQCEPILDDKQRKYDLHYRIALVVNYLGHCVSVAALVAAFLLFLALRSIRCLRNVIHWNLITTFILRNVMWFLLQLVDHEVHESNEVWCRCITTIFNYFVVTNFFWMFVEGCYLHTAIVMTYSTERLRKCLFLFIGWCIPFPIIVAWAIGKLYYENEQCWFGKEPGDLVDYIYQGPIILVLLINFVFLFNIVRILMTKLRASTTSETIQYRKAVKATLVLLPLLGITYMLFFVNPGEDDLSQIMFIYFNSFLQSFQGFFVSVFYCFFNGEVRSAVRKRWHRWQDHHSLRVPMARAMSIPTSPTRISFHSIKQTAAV
T3 sequence (P24387 whole entry): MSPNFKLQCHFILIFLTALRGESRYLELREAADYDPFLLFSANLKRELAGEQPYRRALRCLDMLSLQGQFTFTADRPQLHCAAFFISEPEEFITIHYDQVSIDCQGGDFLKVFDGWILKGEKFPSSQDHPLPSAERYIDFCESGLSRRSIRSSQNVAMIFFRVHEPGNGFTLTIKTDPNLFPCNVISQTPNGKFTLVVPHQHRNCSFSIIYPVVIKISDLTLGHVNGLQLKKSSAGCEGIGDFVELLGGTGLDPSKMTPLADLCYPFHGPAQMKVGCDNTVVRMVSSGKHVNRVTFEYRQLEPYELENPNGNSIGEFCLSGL

[13] = target: T3, Corticotropin-releasing factor receptor 2/Corticotropin-releasing factor-binding protein; experiment: activators of CRF receptor 2 with binding protein – uHTS hits, confirmation (AID 602473); assay type: functional; conditions: read-out: EC50_Mean

Row | SMILES | EC50 [1] | EC50 [2] | EC50 [3] | AC50 [4] | also measured
1 | COc1ccc(-c2cc3nc(-c4ccccc4)cc(N4CCCC(O)C4)n3n2)cc1 (configuration not stated) | 6.75 µM (active) | > 150 µM (not active) | 14.3 µM (active) |  | 
2 | CCOC(=O)c1c(NC(=O)CCc2ccc(CC)o2)sc(C)c1C |  |  |  | inconclusive | 
3 | O=C(NCc1ccccn1)C1CC(c2ccc(Cl)c(Cl)c2)=NO1 (configuration not stated) |  |  |  | inconclusive | AC50 [5]: 4.47 µM (inconclusive)
4 | Cc1nnc(NC(=O)c2ccc(S(=O)(=O)N(C)Cc3ccccc3)cc2)o1 | 4.98 µM (active) | > 150 µM (not active) | 17 µM (active) |  | EC50 [6]: 21.7 µM (active); EC50 [7]: 2.21 µM (active)
5 | Cc1ccc(-n2nnnc2SCC(=O)NNC(=O)c2ccco2)c(C)c1 |  |  |  | inconclusive | 
6 | NC(S)=Nc1cccc2cccnc12 |  |  |  | inconclusive | 
7 | CCOc1ccc(C(=O)O)cc1OC |  |  |  | inconclusive | 
8 | Cc1cc(C)c(C#N)c(SC[S+]([O-])c2ccc(C(C)(C)C)cc2)n1 (configuration not stated) |  |  |  | inconclusive | 
9 | CCN(CC)C(=O)C1CCN(S(=O)(=O)c2ccc3oc4ccccc4c3c2)CC1 |  |  |  | inconclusive | AC50 [8]: 3.96 µM (active); AC50 [9]: > 70 µM (inactive); AC50 [10]: 10.1 µM (active); AC50 [11]: 3.98 µM (inconclusive)
10 | COc1ccc(OC)c(S(=O)(=O)N2CCC(C(=O)Nc3ccc(C)c(C)c3)CC2)c1 |  |  |  | inconclusive | AC50 [5]: 12.6 µM (inconclusive)
11 | Cc1nc(N)sc1-c1csc(N(C)c2ccc(O)cc2)n1 | 5.24 µM (active) | > 150 µM (not active) | 95.2 µM (active) |  | IC50 [12]: > 47.1 µM (inactive); EC50 [13]: > 53 µM (inactive)
12 | CC(C)[C@@H](C(=O)NC1CCCC1)N1C(=O)N2CCc3c([nH]c4ccccc34)[C@@]2(C)C1=O | 30.2 µM (active) | > 150 µM (not active) | > 150 µM (not active) |  | 
13 | CCOC(=O)c1c(NC(S)=NCCc2ccccc2)sc2c1CC(C(C)C)OC2 (configuration not stated) | 0.814 µM (active) | > 150 µM (not active) | 15.1 µM (active) |  | 
14 | Cc1ccc2cc3cc(C(=O)N4CCC5(CC4)OCCO5)oc3nc2c1 |  |  |  | inconclusive | 
15 | N=c1c2c(-c3ccccc3)c(-c3ccccc3)oc2ncn1Cc1ccco1 | 6.44 µM (active) | 17.5 µM (active) | 30.3 µM (active) |  | 

— ChEMBL document CHEMBL1201862, “PubChem BioAssay data set” (2004)
